Experimental findings from publication PMC10964662, “Domperidone inhibits cell proliferation via targeting MEK and CDK4 in esophageal squamous cell carcinoma” (Cancer Cell International, 2024) are described below.

The target of one assay is T1, MEK2 (Homo sapiens, UniProt P36507).
T1 construct: gene MAP2K2; active MEK2 human recombinant protein
The experiment in a line: SPR (Biacore T200, CM5 chip); also pull-down, DARTS and in vitro kinase assay. The format is binding. (SPR reads the build-up and loss of mass on a sensor chip optically.)

A further assay has as its target T2, MEK1 (Homo sapiens, UniProt Q02750).
T2 construct: gene MAP2K1; active MEK1 human recombinant protein
Described as above. The format is binding.

The target in the next assay is CDK4 (Homo sapiens, UniProt P11802). In words: pull-down with domperidone-Sepharose 4B beads and DARTS in KYSE150/KYSE450 lysates. The format is cell-based.
Sequence of CDK4 (P11802 2-303): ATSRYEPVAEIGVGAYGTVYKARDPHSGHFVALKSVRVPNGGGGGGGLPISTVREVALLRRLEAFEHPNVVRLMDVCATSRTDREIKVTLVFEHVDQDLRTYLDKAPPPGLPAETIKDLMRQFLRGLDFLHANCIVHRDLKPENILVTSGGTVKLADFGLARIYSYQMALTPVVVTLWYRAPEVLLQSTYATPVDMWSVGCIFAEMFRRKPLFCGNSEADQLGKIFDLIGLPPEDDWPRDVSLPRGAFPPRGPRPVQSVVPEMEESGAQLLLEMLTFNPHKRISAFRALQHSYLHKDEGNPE

T2 sequence (Q02750 whole entry): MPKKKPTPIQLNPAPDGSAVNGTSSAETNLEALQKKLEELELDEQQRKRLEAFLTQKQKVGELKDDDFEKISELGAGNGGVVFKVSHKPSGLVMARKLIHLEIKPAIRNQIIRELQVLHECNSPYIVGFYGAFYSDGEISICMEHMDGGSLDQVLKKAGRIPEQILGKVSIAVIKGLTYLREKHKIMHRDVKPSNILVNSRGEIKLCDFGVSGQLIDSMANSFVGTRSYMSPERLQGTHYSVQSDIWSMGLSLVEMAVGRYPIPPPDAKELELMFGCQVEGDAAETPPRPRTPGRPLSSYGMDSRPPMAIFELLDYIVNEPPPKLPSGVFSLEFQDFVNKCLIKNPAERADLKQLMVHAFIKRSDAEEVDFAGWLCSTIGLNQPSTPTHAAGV
T1 sequence (P36507 whole entry): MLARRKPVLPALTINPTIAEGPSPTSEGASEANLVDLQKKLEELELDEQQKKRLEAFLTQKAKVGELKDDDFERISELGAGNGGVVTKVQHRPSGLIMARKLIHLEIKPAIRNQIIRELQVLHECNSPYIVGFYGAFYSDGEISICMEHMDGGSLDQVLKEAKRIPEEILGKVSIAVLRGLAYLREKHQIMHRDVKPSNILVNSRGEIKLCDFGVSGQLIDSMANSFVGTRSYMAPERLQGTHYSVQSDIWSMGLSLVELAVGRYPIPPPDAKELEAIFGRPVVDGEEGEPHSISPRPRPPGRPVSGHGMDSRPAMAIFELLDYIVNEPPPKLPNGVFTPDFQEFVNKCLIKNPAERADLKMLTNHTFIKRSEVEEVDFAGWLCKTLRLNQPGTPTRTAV

Consider `O=c1[nH]c2ccccc2n1CCCN1CCC(n2c(=O)[nH]c3cc(Cl)ccc32)CC1` [compound 9, Domperidone], for which the Kd (usually the constant that tells how readily two partners part at equilibrium) on MEK2 is 6.66 µM; on MEK1 it was 6.2 µM. Also, the “pull-down with domperidone-Sepharose 4B beads and DARTS in KYSE150/KYSE450 lysat” value at CDK4 was “DARTS assay also validated that domperidone could directly interact with MEK1, MEK2 and CDK4 ex vivo”.
